Measured values: patent publication US20120225061A1, “TETRASUBSTITUTED CYCLOHEXYL COMPOUNDS AS KINASE INHIBITORS” (priority 2011, published 2012)

How the values were obtained:
Pim1 kinase = Pim1 kinase (Homo sapiens, UniProt P11309); experiment: KinaseGlo Pim1 ATP depletion assay; format: biochemical; conditions: Table 4, 2.5 nM PIM1, 20 μM ATP, 40 μM BAD peptide
Experimental: The activity of PIM1 is measured using a luciferase-luciferin based ATP detection reagent to quantify ATP depletion resulting from kinase-catalyzed phosphoryl transfer to a peptide substrate. Compounds to be tested are dissolved in 100% DMSO and directly distributed into white 384-well plates at 0.5 μl per well. […] After 15 minutes, 10 μl of 40 μM ATP in assay buffer is added. […] The reaction is performed until approximately 50% of the ATP is depleted, then stopped with the addition of 20 μl KinaseGlo Plus (Promega Corporation) solution. The stopped reaction is incubated for 10 minutes and the remaining ATP detected via luminescence on the Victor2 (Perkin Elmer).

Pim2 kinase = Pim2 kinase (Homo sapiens, UniProt Q9P1W9); experiment: KinaseGlo Pim2 ATP depletion assay; format: biochemical; conditions: Table 4, 5 nM PIM2, 4 μM ATP, 10 μM BAD peptide
Experimental: (§1) The activity of PIM2 is measured using a luciferase-luciferin based ATP detection reagent to quantify ATP depletion resulting from kinase-catalyzed phosphoryl transfer to a peptide substrate. Compounds to be tested are dissolved in 100% DMSO and directly distributed into white 384-well plates at 0.5 μl per well. […] After 15 minutes, 10 μl of 8 μM ATP in assay buffer is added. Final assay concentrations are 5 nM PIM2, 4 μM ATP, 10 μM BAD peptide and 2.5% DMSO. The reaction is performed until approximately 50% of the ATP is depleted, then stopped with the addition of 20 μl KinaseGlo Plus (Promega Corporation) solution. The stopped reaction is incubated for 10 minutes and the remaining ATP detected via luminescence on the Victor2 (Perkin Elmer).

Pim3 kinase = Pim3 kinase (Homo sapiens, UniProt Q86V86); experiment: KinaseGlo Pim3 ATP depletion assay; format: biochemical; conditions: Table 4, 40 μM ATP, 100 μM BAD peptide
Experimental: as §1, with “of PIM3” for “of PIM2”, “of 80” for “of 8”, “nM PIM1, 40” for “nM PIM2, 4”, “ATP, 100” for “ATP, 10”, “stopped by” for “stopped with”

[1] = tested on: KMS11 (human myeloma cell line); experiment: Cell proliferation assay (CellTiter-Glo) in KMS11 cells; format: cell-based; conditions: KMS-11, 72 h, Table 4, 3 days, read-out: KMS11-luc EC50
In short: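 KMS11 cells at 2000 per well in IMDM/10% FBS were exposed to compound for 3 days. Viability was read by CellTiter-Glo luminescence.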

Pim1 kinase, sequence (P11309 whole entry): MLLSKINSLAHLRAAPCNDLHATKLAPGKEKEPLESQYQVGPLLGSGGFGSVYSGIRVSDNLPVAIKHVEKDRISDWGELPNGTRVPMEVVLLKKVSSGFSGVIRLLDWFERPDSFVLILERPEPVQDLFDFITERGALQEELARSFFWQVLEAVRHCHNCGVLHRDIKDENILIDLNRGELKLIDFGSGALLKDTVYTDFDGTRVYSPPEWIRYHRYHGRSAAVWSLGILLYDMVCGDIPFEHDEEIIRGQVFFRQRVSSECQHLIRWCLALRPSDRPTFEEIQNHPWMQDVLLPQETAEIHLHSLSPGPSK
Pim2 kinase, sequence (Q9P1W9 whole entry): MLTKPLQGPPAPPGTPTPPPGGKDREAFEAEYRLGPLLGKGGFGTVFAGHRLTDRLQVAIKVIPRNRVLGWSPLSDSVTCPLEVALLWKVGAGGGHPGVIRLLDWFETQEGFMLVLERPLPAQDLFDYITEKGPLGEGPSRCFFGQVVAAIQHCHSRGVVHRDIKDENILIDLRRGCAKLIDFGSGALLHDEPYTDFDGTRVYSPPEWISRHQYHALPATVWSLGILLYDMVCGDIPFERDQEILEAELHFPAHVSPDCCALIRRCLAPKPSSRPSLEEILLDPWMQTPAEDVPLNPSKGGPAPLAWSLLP

| Structure (SMILES) | IC50 (Pim1 kinase) [nM] | IC50 (Pim2 kinase) [nM] | IC50 (Pim3 kinase) [nM] | EC50 [1] [nM] |
| --- | --- | --- | --- | --- |
| CC(=O)OC[C@]1(O)[C@H](C)C[C@H](c2ccncc2NC(=O)c2ccc(F)c(-c3c(F)cccc3F)n2)C[C@@H]1O [Example 44, ((1R,2S,4S,6R)-4-(3-(6-(2,6-difluorophenyl)-5-fluoropicolinamido)pyridin-4-yl)-1,2-dihydroxy-6-methylcyclohexyl) methylacetate] | 8.6 | 44.2 | 29.3 | ≥ 10000 |
| C[C@H]1C[C@@H](c2ccncc2NC(=O)c2ccc(F)c(-c3c(F)ccc(C#N)c3F)n2)C[C@@H](O)[C@]1(C)O [Example 46, 6-(3-cyano-2,6-difluorophenyl)-N-(4-((1R,3R,4R,5S)-3,4-dihydroxy-4,5-dimethylcyclohexyl)pyridin-3-yl)-5-fluoropicolinamide] | 1.4 | 10.9 | 3.5 | ≥ 10000 |
| C[C@H]1C[C@@H](c2ccncc2NC(=O)c2nc(-c3c(F)cccc3F)c(F)cc2N)C[C@@H](O)[C@]1(C)O [Example 48, 3-amino-6-(2,6-difluorophenyl)-N-(4-((1R,3R,4R,5S)-3,4-dihydroxy-4,5-dimethylcyclohexyl)pyridin-3-yl)-5-fluoropicolinamide] | 0.4 | 1.3 | 1.4 | 870 |
| COc1cc(F)c(-c2cccc(C(=O)Nc3cnccc3[C@H]3C[C@@H](O)[C@](C)(O)[C@@H](C)C3)n2)c(F)c1 [Example 50, 6-(2,6-difluoro-4-methoxyphenyl)-N-(4-((1R,3R,4R,5S)-3,4-dihydroxy-4,5-dimethylcyclohexyl)pyridin-3-yl) picolinamide] | 0.6 | 3.5 | 1.5 | 4780 |
| C[C@H]1C[C@@H](c2ccncc2NC(=O)c2nc(-c3nccs3)ccc2N)C[C@@H](O)[C@]1(C)O [Example 52, 3-amino-N-(4-((1R,3R,4R,5S)-3,4-dihydroxy-4,5-dimethylcyclohexyl)pyridin-3-yl)-6-(thiazol-2-yl) picolinamide] | 2 | 13.5 | 3.6 | 9740 |
| C[C@H]1C[C@@H](c2ccncc2NC(=O)c2ccc(F)c(-c3ccc(C#N)cc3F)n2)C[C@@H](O)[C@]1(C)O [Example 54, 6-(4-cyano-2-fluorophenyl)-N-(4-((1R,3R,4R,5S)-3,4-dihydroxy-4,5-dimethylcyclohexyl)pyridin-3-yl)-5-fluoropicolinamide] | 3.3 | 67.9 | 12.1 | ≥ 10000 |
| C[C@@H]1C[C@H](c2ccncc2NC(=O)c2ccc(F)c(-c3c(F)ccc(N)c3F)n2)C[C@H](O)[C@@]1(C)O [Example 55, 6-(3-amino-2,6-difluorophenyl)-N-(4-((1S,3S,4S,5R)-3,4-dihydroxy-4,5-dimethylcyclohexyl)pyridin-3-yl)-5-fluoropicolinamide] | 12.7 | 740 | 220 | ≥ 10000 |
| C[C@H]1C[C@@H](c2ccncc2NC(=O)c2ccc(F)c(-c3c(F)ccc(N)c3F)n2)C[C@@H](O)[C@]1(C)O [Example 56, 6-(3-amino-2,6-difluorophenyl)-N-(4-((1R,3R,4R,5S)-3,4-dihydroxy-4,5-dimethylcyclohexyl)pyridin-3-yl)-5-fluoropicolinamide] | 0.4 | 5.3 | 2.9 | 7960 |
| C[C@@H]1C[C@H](c2ccncc2NC(=O)c2cccc(-c3c(F)cccc3F)n2)C[C@H](O)[C@@]1(C)O [Example 57, 6-(2,6-difluorophenyl)-N-(4-((1S,3S,4S,5R)-3,4-dihydroxy-4,5-dimethylcyclohexyl)pyridin-3-yl) picolinamide] | 15.1 | 227 | 102 | 6620 |
| C[C@H]1C[C@@H](c2ccncc2NC(=O)c2cccc(-c3c(F)cccc3F)n2)C[C@@H](O)[C@]1(C)O [Example 58, 6-(2,6-difluorophenyl)-N-(4-((1R,3R,4R,5S)-3,4-dihydroxy-4,5-dimethylcyclohexyl)pyridin-3-yl) picolinamide] | 0.4 | 3.4 | 2.6 | 6060 |
| C[C@@H]1C[C@H](c2ccncc2NC(=O)c2ccc(F)c(-c3c(F)cccc3F)n2)C[C@H](O)[C@]1(O)CO [Example 60, 6-(2,6-difluorophenyl)-N-(4-((1S,3S,4R,5R)-3,4-dihydroxy-4-(hydroxymethyl)-5-methylcyclohexyl)pyridin-3-yl)-5-fluoropicolinamide] | 19.3 | 1710 | 329 | ≥ 10000 |
| C[C@H]1C[C@@H](c2ccncc2NC(=O)c2nc(-c3nc(Cl)ccc3F)ccc2N)C[C@@H](O)[C@]1(C)O [Example 136, 5-amino-6′-chloro-N-(4-((1R,3R,4R,5S)-3,4-dihydroxy-4,5-dimethylcyclohexyl)pyridin-3-yl)-3′-fluoro-2,2′-bipyridine-6-carboxamide] | 1 | 4.6 | 1.9 | 5750 |
| COC(=O)c1ccc(F)c(-c2ccc(N)c(C(=O)Nc3cnccc3[C@H]3C[C@@H](O)[C@](C)(O)[C@@H](C)C3)n2)n1 [Example 137, methyl 5′-amino-6′-(4-((1R,3R,4R,5S)-3,4-dihydroxy-4,5-dimethylcyclohexyl)pyridin-3-ylcarbamoyl)-3-fluoro-2,2′-bipyridine-6-carboxylate] | 1.5 | 5.4 | 2.3 | 8580 |
| Cc1ccc(F)c(-c2ccc(N)c(C(=O)Nc3cnccc3[C@H]3C[C@@H](O)[C@](C)(O)[C@@H](C)C3)n2)n1 [Example 138, 5-amino-N-(4-((1R,3R,4R,5S)-3,4-dihydroxy-4,5-dimethylcyclohexyl)pyridin-3-yl)-3′-fluoro-6′-methyl-2,2′-bipyridine-6-carboxamide] | 1.7 | 12.9 | 2.6 | ≥ 10000 |
| Cc1nn(C)cc1-c1ccc(N)c(C(=O)Nc2cnccc2[C@H]2C[C@@H](O)[C@](C)(O)[C@@H](C)C2)n1 [Example 140, 3-amino-N-(4-((1R,3R,4R,5S)-3,4-dihydroxy-4,5-dimethylcyclohexyl)pyridin-3-yl)-6-(1,3-dimethyl-1H-pyrazol-4-yl)picolinamide] | 7.5 | 130 | 15.2 | ≥ 10000 |
| C[C@H]1C[C@@H](c2ccncc2NC(=O)c2nc(-c3c(F)cncc3F)ccc2N)C[C@@H](O)[C@]1(C)O [Example 141, 5-amino-N-(4-((1R,3R,4R,5S)-3,4-dihydroxy-4,5-dimethylcyclohexyl)pyridin-3-yl)-3′,5′-difluoro-2,4′-bipyridine-6-carboxamide] | 1.1 | 2.1 | 2.2 | 4870 |
| C[C@H]1C[C@@H](c2ccncc2NC(=O)c2nc(-c3ccnnc3)ccc2N)C[C@@H](O)[C@]1(C)O [Example 142, 3-amino-N-(4-((1R,3R,4R,5S)-3,4-dihydroxy-4,5-dimethylcyclohexyl)pyridin-3-yl)-6-(pyridazin-4-yl)picolinamide] | 152 | 769 | 245 | ≥ 10000 |
| Cc1c(-c2ccc(N)c(C(=O)Nc3cnccc3[C@H]3C[C@@H](O)[C@](C)(O)[C@@H](C)C3)n2)cnn1C [Example 143, 3-amino-N-(4-((1R,3R,4R,5S)-3,4-dihydroxy-4,5-dimethylcyclohexyl)pyridin-3-yl)-6-(1,5-dimethyl-1H-pyrazol-4-yl)picolinamide] | 8.8 | 120 | 8.7 | 6690 |
| C[C@H]1C[C@@H](c2ccncc2NC(=O)c2nc(-c3ncccc3Cl)ccc2N)C[C@@H](O)[C@]1(C)O [Example 144, 5-amino-3′-chloro-N-(4-((1R,3R,4R,5S)-3,4-dihydroxy-4,5-dimethylcyclohexyl)pyridin-3-yl)-2,2′-bipyridine-6-carboxamide] | 0.7 | 7.7 | 2.3 | 4220 |
